Legend:
[1] = target: T1, Mer (h) (Homo sapiens, UniProt Q12866); assay: Enzymatic activity assay, Mer (h), [γ-33P]-ATP filter assay; type: biochemical; settings: 10 μM ATP, 40 min room temperature; read-out: Inhibitory activity IC50 Mer(h)
T1 sequence (Q12866 21-999): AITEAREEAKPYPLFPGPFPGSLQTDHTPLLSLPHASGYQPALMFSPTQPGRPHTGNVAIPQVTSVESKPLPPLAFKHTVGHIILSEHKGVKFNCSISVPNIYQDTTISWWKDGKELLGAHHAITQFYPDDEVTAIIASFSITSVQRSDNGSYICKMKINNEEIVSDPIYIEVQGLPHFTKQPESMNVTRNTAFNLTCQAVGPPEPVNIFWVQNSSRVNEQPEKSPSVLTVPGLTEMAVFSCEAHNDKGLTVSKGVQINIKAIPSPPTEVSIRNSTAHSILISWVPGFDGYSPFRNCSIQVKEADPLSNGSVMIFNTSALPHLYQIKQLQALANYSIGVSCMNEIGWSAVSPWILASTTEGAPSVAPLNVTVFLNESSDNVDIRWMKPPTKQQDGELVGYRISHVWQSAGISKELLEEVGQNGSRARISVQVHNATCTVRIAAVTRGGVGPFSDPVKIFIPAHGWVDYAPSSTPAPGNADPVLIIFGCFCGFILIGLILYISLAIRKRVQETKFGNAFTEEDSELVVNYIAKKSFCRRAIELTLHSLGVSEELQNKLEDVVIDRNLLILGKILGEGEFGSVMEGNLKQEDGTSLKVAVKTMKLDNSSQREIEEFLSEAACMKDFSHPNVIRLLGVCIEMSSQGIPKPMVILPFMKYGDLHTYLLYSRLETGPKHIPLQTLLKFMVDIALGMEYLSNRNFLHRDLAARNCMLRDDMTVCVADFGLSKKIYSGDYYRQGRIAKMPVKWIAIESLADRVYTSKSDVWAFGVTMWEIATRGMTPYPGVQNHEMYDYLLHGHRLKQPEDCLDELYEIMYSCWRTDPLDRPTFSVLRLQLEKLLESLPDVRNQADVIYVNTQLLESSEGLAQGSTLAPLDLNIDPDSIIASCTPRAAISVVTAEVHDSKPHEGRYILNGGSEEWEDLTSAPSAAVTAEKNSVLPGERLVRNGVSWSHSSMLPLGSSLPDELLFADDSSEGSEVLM
Description: (§1) Compounds were each dissolved in 100% DMSO to prepare stock solutions with a maximum concentration of 500 μM.
(§2) Compound working solutions (50×) were prepared by diluting a compound stock solution to a final concentration of 500, 150, 50, 15, 5, 1.5, 0.5, 0.15 and 0.05 μM.
An enzyme solution with a final concentration of 3.1 nM was prepared by dissolving Mer (h) enzyme in a mixture of 8 mM MOPS (pH 7.0), 0.2 mM EDTA, 30 mM NaCl and 250 μM GGMEDIYFEFMGGKKK. A Mg/ATP mixture of 10 mM magnesium acetate and 10 μM [γ-^33P]-ATP was used to activate the enzymatic reaction.
(§3) A compound working solution was added to a 384-well plate, with final concentrations of 10,000, 3,000, 1,000, 300, 100, 30, 10, 3 and 1 nM, and then different enzymatic reaction solutions prepared according to the above conditions were added. The reaction solutions were incubated at room temperature for 40 min, and then 0.5% phosphoric acid solutions were added to terminate the reaction. 10 μL of the reaction solution was added dropwise to P30 filter paper, washed 4 times with a 0.425% phosphoric acid solution and once with methanol, and then placed in a scintillation counter for detection. Gray analysis was performed on the results with Image J software, and IC50 values were calculated with GraphPad 5.0 software.

[2] = target: T2, Axl (h) (Homo sapiens, UniProt P30530); assay: Enzymatic activity assay, Axl (h), [γ-33P]-ATP filter assay; type: biochemical; settings: 10 μM ATP, 40 min room temperature; read-out: Inhibitory activity IC50 Axl(h)
T2 sequence (P30530 26-894): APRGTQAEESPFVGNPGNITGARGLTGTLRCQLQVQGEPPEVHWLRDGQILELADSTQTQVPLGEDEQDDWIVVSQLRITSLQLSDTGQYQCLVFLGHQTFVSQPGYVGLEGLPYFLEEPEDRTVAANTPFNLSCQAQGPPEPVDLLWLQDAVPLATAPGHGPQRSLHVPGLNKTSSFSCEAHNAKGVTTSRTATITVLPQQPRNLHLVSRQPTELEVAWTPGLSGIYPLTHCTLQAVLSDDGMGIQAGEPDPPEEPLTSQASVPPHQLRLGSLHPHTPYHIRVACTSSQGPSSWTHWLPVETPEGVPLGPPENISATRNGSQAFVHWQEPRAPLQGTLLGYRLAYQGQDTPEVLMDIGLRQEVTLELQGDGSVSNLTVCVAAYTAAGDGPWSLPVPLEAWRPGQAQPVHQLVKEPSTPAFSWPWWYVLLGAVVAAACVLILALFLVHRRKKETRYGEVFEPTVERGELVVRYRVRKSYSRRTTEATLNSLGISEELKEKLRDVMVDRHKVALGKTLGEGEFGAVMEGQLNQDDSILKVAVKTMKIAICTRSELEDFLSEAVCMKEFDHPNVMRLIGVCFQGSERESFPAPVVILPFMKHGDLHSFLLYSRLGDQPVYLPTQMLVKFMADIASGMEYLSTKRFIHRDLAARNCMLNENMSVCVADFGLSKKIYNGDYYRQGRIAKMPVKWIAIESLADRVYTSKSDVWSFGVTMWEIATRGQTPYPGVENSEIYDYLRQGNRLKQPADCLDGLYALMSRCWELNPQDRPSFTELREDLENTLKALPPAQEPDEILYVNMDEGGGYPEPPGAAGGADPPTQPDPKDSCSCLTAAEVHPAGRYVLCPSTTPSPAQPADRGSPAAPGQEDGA
Description: as §1, §2
An enzyme solution with a final concentration of 1.7 nM was prepared by dissolving Axl (h) enzyme in a mixture of 8 mM MOPS (pH 7.0), 0.2 mM EDTA and 250 μM KKSRGDYMTMQIG. A Mg/ATP mixture of 10 mM magnesium acetate and 10 μM [γ-^33P]-ATP was used to activate the enzymatic reaction.
as §3

IC50 [1] | IC50 [2] | SMILES
50 nM | 20 nM | COc1cc2nccc(Oc3ccc(NC(=O)c4cn(CC5CCS(=O)(=O)CC5)cc(-c5ccc(C)cc5)c4=O)nc3)c2cc1OC [Compound 7, N-(5-((6,7-dimethoxyquinolin-4-yl)oxy)pyridin-2-yl)-1-((1,1-dioxotetrahydro-2H-thiopyran-4-yl)methyl)-4-oxo-5-(p-tolyl)-1,4-dihydropyridin-3-carboxamide]
1 nM | 23 nM | COc1cc2nccc(Oc3ccc(NC(=O)c4nn(C5CCOCC5)cc(-c5ccc(C)cc5)c4=O)cc3F)c2cc1OC [Compound 28]
5 nM | 35 nM | COc1cc2nccc(Oc3ccc(NC(=O)c4cn(CC5CCSCC5)cc(-c5ccc(C)cc5)c4=O)nc3)c2cc1OC [Compound 9, N-(5-((6,7-dimethoxyquinolin-4-yl)oxy)pyridin-2-yl)-4-oxo-1-((tetrahydro-2H-thiopyran-4-yl)methyl)-5-(p-tolyl)-1,4-dihydropyridin-3-carboxamide]
< 1 nM | 7 nM | COc1cc2nccc(Oc3ccc(NC(=O)c4nn(CC5CCOCC5)cc(-c5ccc(C)cc5)c4=O)nc3)c2cc1OC [Compound 2, N-(5-((6,7-dimethoxyquinolin-4-yl)oxy)pyridin-2-yl)-4-oxo-1-((tetrahydro-2H-pyran-4-yl)methyl)-5-(p-tolyl)-1,4-dihydropyridazin-3-carboxamide]
2 nM | 5 nM | COc1cc2nccc(Oc3ccc(NC(=O)c4cn(CC5CCOCC5)cc(-c5ccc(C)cc5)c4=O)nc3)c2cc1OC [Compound 1, N-(5-((6,7-dimethoxyquinolin-4-yl)oxy)pyridin-2-yl)-4-oxo-1-((tetrahydro-2H-pyran-4-yl)methyl)-5-(p-tolyl)-1,4-dihydropyridin-3-carboxamide]
14 nM | 4 nM | COc1cc2nccc(Oc3cnc(NC(=O)c4cn(C5CCOCC5)cc(-c5ccc(C)cc5)c4=O)nc3)c2cc1OC [Compound 20, N-(5-((6,7-dimethoxyquinolin-4-yl)oxy)pyrimidin-2-yl)-4-oxo-1-(tetrahydro-2H-pyran-4-yl)-5-(p-tolyl)-1,4-dihydropyridin-3-carboxamide]
4 nM | 12 nM | COc1cc2nccc(Oc3ccc(NC(=O)c4cn(C5CCOCC5)cc(-c5ccc(C)cc5)c4=O)nc3)c2cc1OC [Compound 19, N-(5-((6,7-dimethoxyquinolin-4-yl)oxy)pyridin-2-yl)-4-oxo-1-(tetrahydro-2H-pyran-4-yl)-5-(p-tolyl)-1,4-dihydropyridin-3-carboxamide]
2 nM | 29 nM | COc1cc2nccc(Oc3ccc(NC(=O)c4nn(C5CCOCC5)cc(-c5ccc(F)cc5)c4=O)nc3)c2cc1OC [Compound 34, N-(5-((6,7-dimethoxyquinolin-4-yl)oxy)pyridin-2-yl)-5-(4-fluorophenyl)-4-oxo-1-(tetrahydro-2H-pyran-4-yl)-1,4-dihydropyridazin-3-carboxamide]
8 nM | 15 nM | COc1cc2nccc(Oc3cnc(NC(=O)c4cn(C5CCOCC5)cc(-c5ccc(F)cc5)c4=O)nc3)c2cc1OC [Compound 31, N-(5-((6,7-dimethoxyquinolin-4-yl)oxy)pyrimidin-2-yl)-5-(4-fluorophenyl)-4-oxo-1-(tetrahydro-2H-pyran-4-yl)-1,4-dihydropyridin-3-carboxamide]
12 nM | 31 nM | COc1cc2nccc(Oc3ccc(NC(=O)c4cc(CC5CCOCC5)cn(-c5ccc(F)cc5)c4=O)nc3)c2cc1OC [Compound 32, N-(5-((6,7-dimethoxyquinolin-4-yl)oxy)pyridin-2-yl)-1-(4-fluorophenyl)-2-oxo-5-((tetrahydro-2H-pyran-4-yl)methy 1)-1,2-dihydropyridin-3-carboxamide]
5 nM | 7 nM | COc1cc2nccc(Oc3cnc(NC(=O)c4nn(C5CCOCC5)cc(-c5ccc(C)cc5)c4=O)nc3)c2cc1OC [Compound 18, N-(5-((6,7-dimethoxyquinolin-4-yl)oxy)pyrimidin-2-yl)-4-oxo-1-(tetrahydro-2H-pyran-4-yl)-5-(p-tolyl)-1,4-dihydropyridazin-3-carboxamide]
73 nM | 6 nM | COc1cc2nccc(Oc3ccc(NC(=O)c4cn(CC5CC[S+]([O-])CC5)cc(-c5ccc(C)cc5)c4=O)nc3)c2cc1OC (centres unmarked) [Compound 8, N-(5-((6,7-dimethoxyquinolin-4-yl)oxy)pyridin-2-yl)-1-((1-oxotetrahydro-2H-thiopyran-4-yl)methyl)-4-oxo-5-(p-tolyl)-1,4-dihydropyridin-3-carboxamide]
34 nM | 9 nM | COc1cc2nccc(Oc3ccc(NC(=O)c4cn(CC5CCOCC5)cc(-c5ccc(C)cc5)c4=O)nn3)c2cc1OC [Compound 24, N-(6-((6,7-dimethoxyquinolin-4-yl)oxy)pyridazin-3-yl)-4-oxo-1-((tetrahydro-2H-pyran-4-yl)methyl)-5-(p-tolyl)-1,4-dihydropyridin-3-carboxamide]
5 nM | 9 nM | COc1cc2nccc(Oc3cnc(NC(=O)c4cn(CC5CCOCC5)cc(-c5ccc(C)cc5)c4=O)nc3)c2cc1OC [Compound 4, N-(5-((6,7-dimethoxyquinolin-4-yl)oxy)pyrimidin-2-yl)-4-oxo-1-((tetrahydro-2H-pyran-4-yl)methyl)-5-(p-tolyl)-1,4-dihydropyridin-3-carboxamide]
8 nM | 23 nM | COc1cc2nccc(Oc3ccc(NC(=O)c4cc(-c5ccc(C)cc5)cn(CC5CCOCC5)c4=O)nc3)c2cc1OC [Compound 13, N-(5-((6,7-dimethoxyquinolin-4-yl)oxy)pyridin 2yl)-2-oxo-1-((tetrahydro-2H-pyran-4-yl)methyl)-5-(p-tolyl)-1,2-dihydropyridin-3-carboxamide]
7 nM | 13 nM | COc1cc2nccc(Oc3ccc(NC(=O)c4cn(C5CCOCC5)cc(-c5ccc(F)cc5)c4=O)nc3)c2cc1OC [Compound 27, N-(5-((6,7-dimethoxyquinolin-4-yl)oxy)pyridin-2-yl)-5-(4-fluorophenyl)-4-oxo-1-(tetrahydro-2H-pyran-4-yl)-1,4-dihydropyridin-3-carboxamide]
